Like-named read-outs stand apart in the source and are kept apart here.
What was measured:
[1] = for AUC% extrap / CL/F / RAUC / RCmax / λz: Day 14 (steady state), mean
Description: The following PK parameters were calculated for deuterated domperidone from plasma concentrations (Day 1) using a noncompartmental method, if the data permitted: • Cmax determined directly from the concentration-time profile.
[formula] • λz calculated from a semi-logarithmic plot of the plasma concentration versus time curve. The parameter was calculated by linear least-squares regression analysis using points in the terminal logarithmic-linear phase; • T½ calculated as natural logarithm (2)/λz; • CL/F calculated as Dose/AUC0-∞; • Vz/F calculated as Dose/(λz×AUC0-∞); • Rcmax calculated as Cmax on Day 14/Cmax on Day 1; and • RAUC calculated as AUCtau on Day 14/AUCtau on Day 1.

prolactin = experiment: Prolactin concentration (pharmacodynamic evaluation), Phase 2a; assay type: in vivo, human; conditions: Safety Population
Description: Table 14 summarizes prolactin concentration and change from baseline by scheduled time point and treatment for the Safety Population.

[2] = test system: adults with idiopathic or diabetic gastroparesis; conditions: 10 mg BID, Cohort 1, ITT
Description: Gastric emptying may be measured by the gastric emptying breath test (GEBT). The GEBT is known in the art. Succinctly, the GEBT is a nonradioactive stable isotope breath test used in the art to diagnose or monitor gastroparesis. In this test, the ratio of exhaled ^13CO2/^12CO2 is used to determine the rate of gastric emptying after consumption of a standardized, ^13C-enriched meal. In some embodiments, the ^13C-enriched meal is ^13C-Spirulina platensis. In some examples, the test includes consumption of a standardized, ^13C-enriched meal after an 8-hour fast. See, e.g., the Cairn Gastric Emptying Breath Test (GEBT) Administration Guide at https://cairndiagnostics.com/wp-content/uploads/2019/05/Cairn-GEBT-How-To-Guide-updated-07May2019.pdf, which is hereby incorporated by reference. Breath samples are obtained one or more times prior to consumption of the ^13C-enriched meal and then one or more times after meal consumption. The breath samples are then measured using, e.g., a gas isotope ratio mass spectrometer. […]
Subjects were Evaluated as Follows: • Days −28 to −11: Screening procedures were performed. The ANMS GCSI-DD questionnaire was completed daily for at least 14 days prior to randomization (Day 1); • Days −10 to −3: The ANMS GCSI-DD questionnaire was completed daily. A GEBT was performed on a single day within this window, with breath samples obtained twice prior to consumption of a standardized, carbon-13 (^13C)-enriched meal and then at 45, 90, 120, 150, 180, and 240 minutes after meal consumption after an 8-hour fast. […] On Day 14 (±2 days), the PAGI-SYM and Clinical Grading Assessment questionnaires were completed prior to the final dose of study drug. • A GEBT was administered 30 minutes after study drug administration on Day 14 (±2 days). Breath samples were obtained twice prior to ^13C-enriched meal consumption and then at 45, 90, 120, 150, 180, and 240 minutes after meal consumption after an 8-hour fast. […] Clinical Grading Assessment Scales were also performed.
The primary efficacy variable was the change from baseline in gastric emptying as measured by GEBT at Day 14.
The secondary efficacy variables were the following: • The change from baseline in gastric emptying as measured by GEBT T½ at Day 14; • The change from baseline in ANMS GCSI-DD total scores; and • The change from baseline in ANMS GCSI-DD subscale scores.

## [2H]c1c([2H])c([2H])c2c([nH]c(=O)n2CCCN2CCC(n3c(=O)[nH]c4cc(Cl)ccc43)CC2)c1[2H] [Deudomperidone, 1-{3-[4-(5-chloro-2-oxo-2,3-dihydro-1H-1,3-benzodiazol-1-yl)piperidin-1yl]propyl}-2,3-dihydro(4,5,6,7-D4)-1H-1,3-benzodiazol-2-one]
[1]; 5 mg BID
  AUC% extrap: 11.72%
  CL/F: 48.394 L/h
  RAUC: 1.653
  RCmax: 1.838
  λz: 0.0413 h⁻¹
[1]; 10 mg BID
  AUC% extrap: 9.31%
  CL/F: 69.640 L/h
  RAUC: 2.430
  RCmax: 2.179
  λz: 0.0454 h⁻¹
[1]; 20 mg QD
  AUC% extrap: 8.48%
  CL/F: 55.317 L/h
  RAUC: 2.011
  RCmax: 2.620
  λz: 0.0454 h⁻¹
[1]; given dose level
  exposure (Cmax and AUC) in patients with gastroparesis compared to that expected from healthy subjects: approximately 2 fold
prolactin; 5 mg BID
  Prolactin, Day 3, mean (SD): 396.7 (185.83) mIU/L
  Prolactin, Day 7, mean (SD): 622.9 (317.61) mIU/L
  Prolactin, Day 10, mean (SD): 449.7 (147.64) mIU/L
  Prolactin, Day 14, mean (SD): 578.0 (205.82) mIU/L
  Prolactin, change from baseline to Day 3, mean (SD): 143.4 (124.58) mIU/L
  Prolactin, change from baseline to Day 7, mean (SD): 369.7 (263.19) mIU/L
  Prolactin, change from baseline to Day 10, mean (SD): 196.4 (99.96) mIU/L
  Prolactin, change from baseline to Day 14, mean (SD): 324.8 (187.12) mIU/L
prolactin; 10 mg BID
  Prolactin, Day 3, mean: 570.2 mIU/L
  Prolactin, Day 7, mean: 640.0 mIU/L
  Prolactin, Day 10, mean: 734.9 mIU/L
  Prolactin, Day 14, mean: 774.2 mIU/L
  Prolactin, change from baseline to Day 3: 351.5 mIU/L
  Prolactin, change from baseline to Day 7: 421.2 mIU/L
  Prolactin, change from baseline to Day 10: 512.1 mIU/L
  Prolactin, change from baseline to Day 14: 555.5 mIU/L
prolactin; 10 mg BID, n = 2
  Prolactin, change from baseline to follow-up/early termination: −32.5 mIU/L
  Prolactin, follow-up/early termination, mean: 195.0 mIU/L
prolactin; 20 mg QD
  Prolactin, Day 3, mean: 830.5 mIU/L
  Prolactin, Day 7, mean: 1219.5 mIU/L
  Prolactin, Day 10, mean: 1264.1 mIU/L
  Prolactin, Day 14, mean: 1251.9 mIU/L
  Prolactin, change from baseline to Day 3: 522.1 mIU/L
  Prolactin, change from baseline to Day 7: 911.1 mIU/L
  Prolactin, change from baseline to Day 10: 955.8 mIU/L
  Prolactin, change from baseline to Day 14: 943.6 mIU/L
[2]
  GEBT 45 minutes post meal consumption, Day 14, mean: 10.74 kPCD
  GEBT 45 minutes post meal consumption, change from baseline to Day 14: 1.96 kPCD
  GEBT 45 minutes post meal consumption, percent change from baseline to Day 14: 89.31%
  GEBT 90 minutes post meal consumption, Day 14, mean: 23.60 kPCD
  GEBT 90 minutes post meal consumption, change from baseline to Day 14: 3.37 kPCD
  GEBT 90 minutes post meal consumption, percent change from baseline to Day 14: 56.73%
  GEBT 120 minutes post meal consumption, Day 14, mean: 32.68 kPCD
  GEBT 120 minutes post meal consumption, change from baseline to Day 14: 3.86 kPCD
  GEBT 120 minutes post meal consumption, percent change from baseline to Day 14: 40.17%
  GEBT 150 minutes post meal consumption, Day 14, mean: 37.13 kPCD
  GEBT 150 minutes post meal consumption, change from baseline to Day 14: 1.25 kPCD
  GEBT 150 minutes post meal consumption, percent change from baseline to Day 14: 23.46%
  GEBT 180 minutes post meal consumption, Day 14, mean: 40.96 kPCD
  GEBT 180 minutes post meal consumption, change from baseline to Day 14: 1.85 kPCD
  GEBT 180 minutes post meal consumption, percent change from baseline to Day 14: 20.31%
  GEBT 240 minutes post meal consumption, Day 14, mean: 41.41 kPCD
  GEBT 240 minutes post meal consumption, change from baseline to Day 14: −0.79 kPCD
  GEBT 240 minutes post meal consumption, percent change from baseline to Day 14: 9.46%

Source: patent US20250268884A1, “Deuterated Domperidone for Treating Gastroparesis” (CinDome Pharma, Inc., priority 2022, published 2025)
